Earlier results, collected in patent US20200085789A1, “USE OF A PROTEASOME INHIBITOR FOR THE TREATMENT OF CENTRAL NERVOUS SYSTEM (CNS) CANCERS” (Celgene International II Sàrl, priority 2017, published 2020).

Settings: in vivo; cited from earlier work

SMILES: CC(C)C[C@H](NC(=O)[C@H](Cc1ccccc1)NC(=O)c1cnccn1)B(O)O [BTZ, bortezomib, reference compound]
- crossing of the blood brain barrier: does not cross the blood brain barrier
